One assay deals with α2-GABAA receptors (Homo sapiens, UniProt P18507+P47869). The following applies: recombinant receptors; cited from earlier work.
Assay [1] concerns subject with Autism Spectrum Disorder. Description: Oral zolpidem dosing regimen in a subject with ASD. The class given is in vivo, human. The text has this:
Thus, classic BZs and zolpidem are likely to have different requirements for high-affinity binding to GABAA receptors (Sancar et al. 2007). […] Studies have shown that the sedative-hypnotic and anticonvulsant activities of zolpidem are due to its action on α1-GABAA receptors and not on α2- or α3-GABAA receptors (Crestani F et al., 2000).
Especially, the relief of the so-called “psychic pain” or “phantom pain” which was by far the most debilitating symptom of ASD with respect to the subject, was profound after the first dose.

The target of a further assay is T1, α5-GABAA receptors (Homo sapiens, UniProt P31644).
T1 sequence (P31644 32-462): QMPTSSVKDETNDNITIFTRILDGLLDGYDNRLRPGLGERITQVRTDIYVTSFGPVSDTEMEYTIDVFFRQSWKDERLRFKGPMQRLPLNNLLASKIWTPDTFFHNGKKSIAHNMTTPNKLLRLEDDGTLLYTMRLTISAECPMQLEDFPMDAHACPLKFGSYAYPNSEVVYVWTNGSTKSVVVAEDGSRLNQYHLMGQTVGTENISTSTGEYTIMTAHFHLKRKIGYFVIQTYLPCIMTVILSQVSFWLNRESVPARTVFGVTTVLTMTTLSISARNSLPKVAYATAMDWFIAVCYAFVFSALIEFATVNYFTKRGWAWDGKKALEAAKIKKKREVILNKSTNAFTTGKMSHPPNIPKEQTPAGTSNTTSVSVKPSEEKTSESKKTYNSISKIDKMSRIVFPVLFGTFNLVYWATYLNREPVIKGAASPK
The following applies: recombinant receptors; cited from earlier work.

A further assay concerns the target α3-GABAA receptors (Homo sapiens, UniProt P18507+P34903). The settings on record: recombinant receptors; cited from earlier work.
A further assay has as its target T2, α1β3 GABAA receptors (Homo sapiens, UniProt P14867).
T2 sequence (P14867 28-456): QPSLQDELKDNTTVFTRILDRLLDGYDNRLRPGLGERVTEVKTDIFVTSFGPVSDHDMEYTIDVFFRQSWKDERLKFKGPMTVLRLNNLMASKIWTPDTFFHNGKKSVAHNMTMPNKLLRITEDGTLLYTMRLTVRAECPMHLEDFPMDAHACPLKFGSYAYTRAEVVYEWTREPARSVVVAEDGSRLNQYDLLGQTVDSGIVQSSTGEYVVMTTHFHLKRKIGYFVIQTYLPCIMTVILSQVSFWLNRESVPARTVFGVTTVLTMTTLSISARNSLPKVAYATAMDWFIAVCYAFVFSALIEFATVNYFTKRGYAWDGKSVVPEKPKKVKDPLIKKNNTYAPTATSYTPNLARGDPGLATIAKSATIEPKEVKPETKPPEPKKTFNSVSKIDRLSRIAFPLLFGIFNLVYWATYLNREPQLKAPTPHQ
T2 sequence (P28472 26-473 partner): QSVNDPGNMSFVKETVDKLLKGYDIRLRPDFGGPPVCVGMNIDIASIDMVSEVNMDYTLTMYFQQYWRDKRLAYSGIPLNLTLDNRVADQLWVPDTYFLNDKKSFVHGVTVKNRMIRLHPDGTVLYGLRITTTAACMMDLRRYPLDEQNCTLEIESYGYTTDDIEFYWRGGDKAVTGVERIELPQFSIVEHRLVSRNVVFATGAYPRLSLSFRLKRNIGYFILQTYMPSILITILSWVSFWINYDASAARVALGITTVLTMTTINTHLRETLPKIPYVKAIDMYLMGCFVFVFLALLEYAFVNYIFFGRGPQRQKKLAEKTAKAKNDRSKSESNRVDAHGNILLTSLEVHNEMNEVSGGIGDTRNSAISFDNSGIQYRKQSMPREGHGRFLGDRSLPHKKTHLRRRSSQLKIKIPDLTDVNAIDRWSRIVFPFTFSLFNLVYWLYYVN
The settings on record: cited from earlier work.

Another assay concerns the target α1-GABAA receptors (Homo sapiens, UniProt P14867+P18507). The settings on record: recombinant receptors; cited from earlier work.
The next assay has as its system autistic children. The settings on record: eight week trial, 25 autistic children, unpublished data, not placebo-controlled; cited from earlier work.

Molecules are shown by their SMILES. Entries after “also recorded” stand apart in the source; their conditions may differ.

Chain of α1-GABAA receptors (P18507 40-475, one chain of several): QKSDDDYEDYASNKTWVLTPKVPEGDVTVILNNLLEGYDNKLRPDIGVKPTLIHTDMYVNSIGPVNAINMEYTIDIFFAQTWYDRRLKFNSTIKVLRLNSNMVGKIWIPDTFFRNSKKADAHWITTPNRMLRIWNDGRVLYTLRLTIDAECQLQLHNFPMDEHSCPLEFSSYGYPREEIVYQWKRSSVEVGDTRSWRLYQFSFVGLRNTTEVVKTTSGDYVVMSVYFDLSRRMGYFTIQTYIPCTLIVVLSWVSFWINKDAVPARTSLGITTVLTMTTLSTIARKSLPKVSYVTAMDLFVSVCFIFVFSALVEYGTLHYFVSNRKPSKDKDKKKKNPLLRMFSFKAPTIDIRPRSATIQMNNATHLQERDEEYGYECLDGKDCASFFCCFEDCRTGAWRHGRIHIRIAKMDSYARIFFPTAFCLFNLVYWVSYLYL
Chain of α2-GABAA receptors (P47869 29-451, one chain of several): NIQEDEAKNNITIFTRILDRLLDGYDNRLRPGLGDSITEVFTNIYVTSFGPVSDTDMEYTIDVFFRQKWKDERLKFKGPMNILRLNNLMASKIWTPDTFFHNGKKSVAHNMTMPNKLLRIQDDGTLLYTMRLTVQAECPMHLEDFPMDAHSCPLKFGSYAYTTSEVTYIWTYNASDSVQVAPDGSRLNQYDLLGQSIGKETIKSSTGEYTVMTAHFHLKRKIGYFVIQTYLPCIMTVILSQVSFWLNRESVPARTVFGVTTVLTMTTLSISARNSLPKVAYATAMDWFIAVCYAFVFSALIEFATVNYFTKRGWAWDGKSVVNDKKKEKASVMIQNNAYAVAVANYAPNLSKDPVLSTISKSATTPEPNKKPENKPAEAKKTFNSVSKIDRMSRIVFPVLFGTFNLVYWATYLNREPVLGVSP
Chain of α2-GABAA receptors (P18507 40-475, one chain of several): as the sequence (P18507 40-475, one chain of several) above
Chain of α3-GABAA receptors (P34903 29-492, one chain of several): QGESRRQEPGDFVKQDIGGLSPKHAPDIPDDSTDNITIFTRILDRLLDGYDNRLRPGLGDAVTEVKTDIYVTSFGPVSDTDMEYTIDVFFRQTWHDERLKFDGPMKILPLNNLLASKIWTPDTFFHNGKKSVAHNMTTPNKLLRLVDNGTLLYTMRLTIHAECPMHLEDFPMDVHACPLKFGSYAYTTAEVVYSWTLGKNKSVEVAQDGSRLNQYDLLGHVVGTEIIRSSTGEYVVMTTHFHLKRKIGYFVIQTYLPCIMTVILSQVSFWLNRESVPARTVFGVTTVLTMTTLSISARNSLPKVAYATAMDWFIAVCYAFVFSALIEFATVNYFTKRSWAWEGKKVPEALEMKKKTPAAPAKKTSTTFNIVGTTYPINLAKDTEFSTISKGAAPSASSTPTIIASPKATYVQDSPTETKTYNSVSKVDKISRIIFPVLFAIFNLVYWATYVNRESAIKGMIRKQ
Chain of α3-GABAA receptors (P18507 40-475, one chain of several): as the sequence (P18507 40-475, one chain of several) above

As to `Cc1ccc(-c2nc3ccc(C)cn3c2CC(=O)N(C)C)cc1` [zolpidem], the “affinity to α2-GABAA receptors” value at α2-GABAA receptors is reported as “intermediate affinity”. Further, in assay [1] (after the first dose, one subject), the “relief of the so-called psychic pain or phantom pain” value is given as “profound”. For the same molecule, the “attenuation of at least one indicium of an ASD” value in assay [1] (oral, at least 30 mg every 3.5 hours around the clock, at least one subject) is “almost complete attenuation; also recorded: immediate and almost complete”. Besides, the “duration of symptom-free state while on zolpidem” value in assay [1] (oral, at least 30 mg every 3.5 hours around the clock, one subject) is “symptom-free and leading a normal life for at least five years”. For the same molecule, the “binding to α5-GABAA receptors” value on α5-GABAA receptors is recorded as “fails to bind”. Besides, the “affinity to α3-GABAA receptors” value at α3-GABAA receptors was “intermediate affinity”. Besides, the “modulation of α1β3 GABAA receptors” value on α1β3 GABAA receptors was “potent stoichiometry-selective modulator”. Besides, the “affinity to α1-GABAA receptors” value at α1-GABAA receptors is on record as “high affinity”.
`NC[C@H](CC(=O)O)c1ccc(Cl)cc1` [Arbaclofen]: in the assay with autistic children, the “measures of irritability and communications” value is “significant improvements”.

The record behind these values is US10449181B2, “Treatment of autism and autism spectrum disorders (ASD)” (priority 2016, dated 2019).
